Like-named read-outs stand apart in the source and are kept apart here.
Experiments:
[1] = design: method as in PMID 30830766; conditions: mice; cited from earlier work
[2] = cited from earlier work; for CO / HR / MAP / PR / QRS / QTcV / SVR / dp/dt@50: dog, IV 0.02 mL/kg/min
[3] = tested on: Nluc expressing C. parvum; design: method as in PMID 30830766; conditions: IFN-γ KO mice, twice daily (BID) for 5 days; cited from earlier work
[4] = tested on: Nluc expressing C. parvum; design: method as in PMID 30830766; conditions: cited from earlier work
[5] = Plasma levels and toxicity signs in treated piglets; type: in vivo, piglet; conditions: for Cmax: pig, plasma, 5 mg/kg, 5 mg/kg BID
[6] = target: human tyrosine kinase SRC (HsSRC) (Homo sapiens, UniProt P12931); design: method as in PMID 30830766; conditions: read-out: HsSR IC50; cited from earlier work
Sequence of human tyrosine kinase SRC (HsSRC) (P12931 whole entry): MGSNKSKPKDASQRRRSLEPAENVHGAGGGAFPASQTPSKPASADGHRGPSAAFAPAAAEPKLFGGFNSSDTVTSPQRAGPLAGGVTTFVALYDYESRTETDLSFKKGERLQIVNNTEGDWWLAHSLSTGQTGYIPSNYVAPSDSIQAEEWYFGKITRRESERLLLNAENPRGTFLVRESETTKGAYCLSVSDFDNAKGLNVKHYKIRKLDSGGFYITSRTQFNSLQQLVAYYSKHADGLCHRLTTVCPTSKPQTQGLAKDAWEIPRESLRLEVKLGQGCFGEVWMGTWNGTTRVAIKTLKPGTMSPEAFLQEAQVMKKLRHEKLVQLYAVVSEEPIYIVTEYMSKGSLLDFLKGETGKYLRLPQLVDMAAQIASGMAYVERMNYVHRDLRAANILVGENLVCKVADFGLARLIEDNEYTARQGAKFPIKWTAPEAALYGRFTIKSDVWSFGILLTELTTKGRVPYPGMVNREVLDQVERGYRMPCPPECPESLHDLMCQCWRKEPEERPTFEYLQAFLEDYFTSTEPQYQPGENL

[7] = Metabolite identification in hepatocytes; type: in vitro ADME, mice, rats, dogs, monkeys, and humans; conditions: all tested species, product 1770-O-glucuronide
Protocol: BKI-1841 was also evaluated in these assays (Table 1). All results from these assays were favorable, including falling within the solubility range that correlated with efficacy for the AC scaffold ([17]).

CRL-8155 cells = tested on: CRL-8155 cells; design: method as in PMID 30830766; conditions: cited from earlier work
Aqueous solubility = type: physicochemical
Excerpt: TABLE 1 In vitro properties of bumped kinase inhibitors^a | column: Solubility at pH 2 (μM); Solubility at pH 6.5 (μM)

[8] = Cardiovascular testing in anesthetized rats; type: in vivo, rat; conditions: for HR / MAP / dP/dt@50: rat
Excerpt: (§1) Methods for synthesis of BKIs ([17], [23]), efficacy against Nluc expressing C. parvum in infected adult IFN-γ KO mice ([6], [9]), in vivo mouse GI tract tissue exposure by LC/MS-MS analysis ([18], [28]), PK analysis of mouse plasma and brain tissue BKI concentrations by LC/MS-MS analysis ([29]), in vivo rat and dog cardiotoxicity screen ([30]), efficacy against IOWA-II strain C. parvum in infected neonatal calves ([13]), efficacy against C. hominis in infected piglets ([12]), in vitro inhibition of C. parvum CDPK1 (CpCDPK1) and human tyrosine kinase SRC (HsSRC) activity ([31]), in vitro inhibition of hERG ([32]), Nluc expressing C. parvum in vitro growth inhibition in infected HCT-8 cells ([6]), in vitro cytotoxicity in CRL-8155 and HepG2 cells ([29]), and mouse locomotor activity box ([33], [34]) have all been previously described. Analytes were measured by LC/MS-MS on an Acquity ultra performance liquid chromatography (UPLC) system in tandem with a Xevo TQ-S mass spectrometer (Waters, Milford, MA, USA).

[9] = In vitro cytotoxicity in HepG2 cells; type: cell-based; conditions: human
Excerpt: as §1

CCOc1ccc2cc(-c3nn(C(C)(C)CCO)c(N)c3C(N)=O)ccc2c1 [BKI-1770]
blood chemistry and histology vs control animals [1]: no apparent abnormalities
effects on MAP, HR, contractility, SVR, CO, QTcV, QRS, PR vs control ([2]; anesthetized dogs, 0.02 mL/kg/min, 150 min): No appreciable effects
CO ([2]; 15 min): 0%
HR ([2]; 15 min): 4%
MAP ([2]; 15 min): 2%
PR ([2]; 15 min): -3 ms
QRS ([2]; 15 min): 0 ms
QTcV ([2]; 15 min): 4 ms
SVR ([2]; 15 min): 2%
dp/dt@50 ([2]; 15 min): 1%
CO ([2]; 30 min): 4%
HR ([2]; 30 min): 5%
MAP ([2]; 30 min): 2%
PR ([2]; 30 min): 0 ms
QRS ([2]; 30 min): 0 ms
QTcV ([2]; 30 min): 1 ms
SVR ([2]; 30 min): -1%
dp/dt@50 ([2]; 30 min): 0%
CO ([2]; 45 min): 3%
HR ([2]; 45 min): 8%
MAP ([2]; 45 min): 2%
PR ([2]; 45 min): -1 ms
QRS ([2]; 45 min): -1 ms
QTcV ([2]; 45 min): 1 ms
SVR ([2]; 45 min): -2%
dp/dt@50 ([2]; 45 min): 1%
CO ([2]; 60 min): -1%
HR ([2]; 60 min): 9%
MAP ([2]; 60 min): 2%
PR ([2]; 60 min): -1 ms
QRS ([2]; 60 min): -2 ms
QTcV ([2]; 60 min): -1 ms
SVR ([2]; 60 min): 2%
dp/dt@50 ([2]; 60 min): -1%
CO ([2]; 75 min): -1%
HR ([2]; 75 min): 9%
MAP ([2]; 75 min): 0%
PR ([2]; 75 min): -1 ms
QRS ([2]; 75 min): -2 ms
QTcV ([2]; 75 min): -3 ms
SVR ([2]; 75 min): 1%
dp/dt@50 ([2]; 75 min): -2%
CO ([2]; 90 min): -9%
HR ([2]; 90 min): 10%
MAP ([2]; 90 min): -1%
PR ([2]; 90 min): 0 ms
QRS ([2]; 90 min): -2 ms
QTcV ([2]; 90 min): -2 ms
SVR ([2]; 90 min): 8%
dp/dt@50 ([2]; 90 min): -6%
CO ([2]; 105 min): -4%
HR ([2]; 105 min): 9%
MAP ([2]; 105 min): -2%
PR ([2]; 105 min): 0 ms
QRS ([2]; 105 min): -3 ms
QTcV ([2]; 105 min): -1 ms
SVR ([2]; 105 min): 2%
dp/dt@50 ([2]; 105 min): -7%
CO ([2]; 120 min): -5%
HR ([2]; 120 min): 10%
MAP ([2]; 120 min): -2%
PR ([2]; 120 min): -1 ms
QRS ([2]; 120 min): -2 ms
QTcV ([2]; 120 min): 0 ms
SVR ([2]; 120 min): 4%
dp/dt@50 ([2]; 120 min): -7%
CO ([2]; 135 min): -8%
HR ([2]; 135 min): 11%
MAP ([2]; 135 min): -3%
PR ([2]; 135 min): -1 ms
QRS ([2]; 135 min): -1 ms
QTcV ([2]; 135 min): -2 ms
SVR ([2]; 135 min): 7%
dp/dt@50 ([2]; 135 min): -7%
CO ([2]; 150 min): -7%
HR ([2]; 150 min): 13%
MAP ([2]; 150 min): -5%
PR ([2]; 150 min): -2 ms
QRS ([2]; 150 min): -1 ms
QTcV ([2]; 150 min): -1 ms
SVR ([2]; 150 min): 4%
dp/dt@50 ([2]; 150 min): -7%
signs of cardiotoxicity ([2]; dogs): no signs of cardiotoxicity
minimum efficacious dose [3]: 30 mg/kg
EC50 [4]: 500 nM
visible signs of toxicity ([5]; 5 mg/kg BID for 5 or 8 days): no visible signs of toxicity
Cmax ([5]; at 2 h post dose 5, read-out: plasma observed Cmax): 2100 ± 1400 nM
Cmax ([5]; at 2 h post dose 8, read-out: plasma observed Cmax): 900 ± 400 nM
IC50 [6]: > 10 µM
main mechanism of metabolism [7]: glucuronylation
CC50 (CRL-8155 cells): > 80 µM

CCOc1ccc2cc(-c3nn(C4CCOCC4)c(N)c3C(N)=O)ccc2n1 [BKI-1841]
solubility (Aqueous solubility; aqueous medium at pH 2, pH 2, simulated gastric fluid, read-out: Solubility at pH 2): > 100 µM
solubility (Aqueous solubility; aqueous medium at pH 6.5, pH 6.5, aqueous buffer, read-out: Solubility at pH 6.5): > 100 µM
effects on MAP, HR, left ventricular contractility vs vehicle ([8]; anesthetized rats, 30-minute IV infusions of 3, 10, 30 mg/kg, significant >15%): No significant effects
HR ([8]; IV 3 mg/kg): 5%
MAP ([8]; IV 3 mg/kg): 1%
dP/dt@50 ([8]; IV 3 mg/kg): 3%
HR ([8]; IV 10 mg/kg): 3%
MAP ([8]; IV 10 mg/kg): 3%
dP/dt@50 ([8]; IV 10 mg/kg): 4%
HR ([8]; IV 30 mg/kg): 0%
MAP ([8]; IV 30 mg/kg): 2%
dP/dt@50 ([8]; IV 30 mg/kg): 11%
CC50 [9]: > 80 µM

From publication PMC10112232, “Comparison of Toxicities among Different Bumped Kinase Inhibitor Analogs for Treatment of Cryptosporidiosis” (Antimicrobial Agents and Chemotherapy, 2023)
